According to patent US20080009418A1, “Selective Inhibitors” (Alchemia LTD., priority 2004, published 2008):

Legend:
Settings in all cases: compound at 10 μM
Human opioid (ORL1) = target: T1, Human opioid (ORL1) (Homo sapiens, UniProt P41146); experiment: Radioligand binding, human opioid ORL1 membranes, FlashPlate, [125I]-Nociceptin
T1 construct: purchased Perkin Elmer Biosignal
In short: (§1)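 Cloned human receptor membranes were coated onto FlashPlate wells and incubated with radioligand and compound (added from a 0.5 mM DMSO daughter plate) for 1 hour at room temperature in the dark. Scintillation counting gave percent inhibition, with DMSO defining total and reference ligand defining non-specific binding.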

[1] = target: T2, Human neuropeptide Y (NPY-Y1) (Homo sapiens, UniProt P25929); experiment: Radioligand binding, human neuropeptide Y NPY-Y1 membranes, FlashPlate, [125I]-PYY
T2 construct: purchased Perkin Elmer Biosignal
T2 sequence (P25929 1-384): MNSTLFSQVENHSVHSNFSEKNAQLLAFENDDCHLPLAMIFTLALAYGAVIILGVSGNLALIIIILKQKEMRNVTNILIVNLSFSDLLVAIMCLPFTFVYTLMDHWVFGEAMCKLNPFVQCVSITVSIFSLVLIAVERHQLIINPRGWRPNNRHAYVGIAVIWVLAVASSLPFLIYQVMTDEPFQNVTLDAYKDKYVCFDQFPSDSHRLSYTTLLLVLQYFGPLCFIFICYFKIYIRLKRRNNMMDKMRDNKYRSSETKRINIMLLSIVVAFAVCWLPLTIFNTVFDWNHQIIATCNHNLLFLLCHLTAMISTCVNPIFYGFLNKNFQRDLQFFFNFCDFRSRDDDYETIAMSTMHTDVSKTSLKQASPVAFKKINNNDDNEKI
In short: as §1

Human μ-opioid (MOP) = target: T3, Human μ-opioid (MOP) (Homo sapiens, UniProt P35372); experiment: Radioligand binding, human μ-opioid (MOP) membranes, FlashPlate, [3H]-Naloxone
T3 construct: purchased Perkin Elmer Biosignal
T3 sequence (P35372 whole entry): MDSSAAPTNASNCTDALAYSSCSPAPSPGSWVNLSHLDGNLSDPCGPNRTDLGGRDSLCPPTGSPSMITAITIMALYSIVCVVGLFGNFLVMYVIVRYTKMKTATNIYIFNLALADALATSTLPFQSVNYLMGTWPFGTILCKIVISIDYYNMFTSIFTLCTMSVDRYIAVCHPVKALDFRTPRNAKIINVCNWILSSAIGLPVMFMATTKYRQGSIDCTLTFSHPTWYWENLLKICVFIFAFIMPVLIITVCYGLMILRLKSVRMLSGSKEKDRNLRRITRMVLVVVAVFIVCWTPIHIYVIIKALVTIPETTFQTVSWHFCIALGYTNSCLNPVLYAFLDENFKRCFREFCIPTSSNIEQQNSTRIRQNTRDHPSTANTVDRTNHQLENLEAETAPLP
In short: as §1

Human δ-opioid (DOP) = target: T4, Human δ-opioid (DOP) (Homo sapiens, UniProt P41143); experiment: Radioligand binding, human δ-opioid (DOP) membranes, FlashPlate, [3H]-Bremazocine
T4 construct: purchased Perkin Elmer Biosignal
T4 sequence (P41143 whole entry): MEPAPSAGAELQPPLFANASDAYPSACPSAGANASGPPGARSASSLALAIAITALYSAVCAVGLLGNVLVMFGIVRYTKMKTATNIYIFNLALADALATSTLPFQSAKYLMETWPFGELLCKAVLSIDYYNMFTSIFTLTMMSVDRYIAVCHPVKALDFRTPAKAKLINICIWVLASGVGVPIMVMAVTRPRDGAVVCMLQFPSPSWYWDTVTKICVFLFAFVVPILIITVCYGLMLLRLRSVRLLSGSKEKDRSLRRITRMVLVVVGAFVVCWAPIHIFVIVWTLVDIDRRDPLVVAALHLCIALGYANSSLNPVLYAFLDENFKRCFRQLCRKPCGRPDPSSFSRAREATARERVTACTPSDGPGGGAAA
In short: as §1

Human κ-Opioid (KOP) = target: T5, Human κ-Opioid (KOP) (Homo sapiens, UniProt P41145); experiment: Radioligand binding, human κ-opioid (KOP) membranes, filtration, [3H]-Diprenorphine
T5 construct: purchased Perkin Elmer Biosignal
T5 sequence (P41145 whole entry): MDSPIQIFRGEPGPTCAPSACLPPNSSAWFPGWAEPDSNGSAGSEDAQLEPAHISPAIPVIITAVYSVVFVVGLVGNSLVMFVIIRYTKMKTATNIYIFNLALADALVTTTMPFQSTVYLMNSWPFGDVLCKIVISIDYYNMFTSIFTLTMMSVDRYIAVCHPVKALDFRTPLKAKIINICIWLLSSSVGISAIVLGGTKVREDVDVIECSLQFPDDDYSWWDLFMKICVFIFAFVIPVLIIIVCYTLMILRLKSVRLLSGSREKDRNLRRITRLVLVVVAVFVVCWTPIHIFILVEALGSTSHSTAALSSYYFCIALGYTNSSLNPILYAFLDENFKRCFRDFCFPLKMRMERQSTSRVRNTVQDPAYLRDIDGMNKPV
In short: (§2)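 Percent inhibition of radioligand binding measured on recombinant human membranes: NK1 with [125I]-Substance P, KOP with [3H]-Diprenorphine. Incubation 1 h at room temperature, then harvest onto 0.3% PEI-soaked filters, cold Tris-HCl pH 7.4 washes and scintillation counting; non-specific binding from reference ligand wells.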

Mouse urotensin (mUR2) = target: T6, Mouse urotensin (mUR2) (Mus musculus, UniProt Q8VIH9); experiment: Radioligand binding, mouse urotensin mUR2 membranes, FlashPlate, [125I]-Urotensin II
T6 construct: purchased Perkin Elmer Biosignal
T6 sequence (Q8VIH9 1-385): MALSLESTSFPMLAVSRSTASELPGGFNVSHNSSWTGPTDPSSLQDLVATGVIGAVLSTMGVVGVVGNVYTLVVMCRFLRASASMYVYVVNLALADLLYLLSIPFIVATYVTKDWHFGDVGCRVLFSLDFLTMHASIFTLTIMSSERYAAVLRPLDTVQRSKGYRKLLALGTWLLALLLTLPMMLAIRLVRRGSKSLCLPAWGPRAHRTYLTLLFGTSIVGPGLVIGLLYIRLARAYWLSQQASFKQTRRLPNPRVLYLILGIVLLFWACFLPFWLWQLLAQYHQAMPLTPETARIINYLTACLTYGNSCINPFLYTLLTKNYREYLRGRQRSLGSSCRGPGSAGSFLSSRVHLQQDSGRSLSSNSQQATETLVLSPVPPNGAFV
In short: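 Cloned mouse urotensin (mUR2) receptor membranes from Perkin Elmer Biosignal were immobilized in FlashPlate microplates using a proprietary coating. Each well got 19.5 μl buffer, then 0.5 μl of DMSO, reference ligand, or compound. Adding 5 μl of [125I]-Urotensin II, diluted to 5× final concentration in binding buffer, started binding. Plates were sealed with TopSeal-A and incubated 1 hour at room temperature in the dark. Wells were counted for 30 seconds each on a TopCount after a 60-second delay, and percentage inhibition was calculated.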

[2] = target: T7, Human melanin-concentrating hormone (MCH1) (Homo sapiens, UniProt Q99705); experiment: Radioligand binding, human melanin-concentrating hormone MCH1 membranes, FlashPlate, [125I]-S36057
T7 construct: purchased Perkin Elmer Biosignal
T7 sequence (Q99705 whole entry): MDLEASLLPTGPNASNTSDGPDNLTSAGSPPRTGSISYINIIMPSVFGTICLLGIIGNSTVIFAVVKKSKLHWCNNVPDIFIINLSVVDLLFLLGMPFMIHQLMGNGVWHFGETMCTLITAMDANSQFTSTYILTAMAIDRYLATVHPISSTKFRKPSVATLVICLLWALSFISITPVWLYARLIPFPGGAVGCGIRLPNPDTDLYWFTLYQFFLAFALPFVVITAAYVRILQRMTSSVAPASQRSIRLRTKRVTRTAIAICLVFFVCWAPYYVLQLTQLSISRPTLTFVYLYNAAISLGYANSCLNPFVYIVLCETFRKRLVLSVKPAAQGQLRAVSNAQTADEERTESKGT
In short: as §1

Human melanocortin (MC5) = target: T8, Human melanocortin (MC5) (Homo sapiens, UniProt P33032); experiment: Radioligand binding, human melanocortin MC5 membranes, FlashPlate, [125I]-NDP-αMSH
T8 construct: purchased Perkin Elmer Biosignal
T8 sequence (P33032 whole entry): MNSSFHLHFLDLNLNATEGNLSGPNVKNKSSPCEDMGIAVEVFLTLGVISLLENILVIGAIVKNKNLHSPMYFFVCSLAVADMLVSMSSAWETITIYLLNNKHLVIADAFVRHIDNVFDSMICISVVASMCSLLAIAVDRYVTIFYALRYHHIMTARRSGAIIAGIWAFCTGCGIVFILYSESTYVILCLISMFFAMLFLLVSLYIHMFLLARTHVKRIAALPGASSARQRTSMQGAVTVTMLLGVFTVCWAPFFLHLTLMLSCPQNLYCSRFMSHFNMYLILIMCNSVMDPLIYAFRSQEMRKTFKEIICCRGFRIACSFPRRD
In short: as §1

Human Melanocortin (MC4) = target: T9, Human Melanocortin (MC4) (Homo sapiens, UniProt P32245); experiment: Radioligand binding, human melanocortin MC4 membranes, FlashPlate, [125I]-NDP-αMSH
T9 construct: purchased Perkin Elmer Biosignal
T9 sequence (P32245 whole entry): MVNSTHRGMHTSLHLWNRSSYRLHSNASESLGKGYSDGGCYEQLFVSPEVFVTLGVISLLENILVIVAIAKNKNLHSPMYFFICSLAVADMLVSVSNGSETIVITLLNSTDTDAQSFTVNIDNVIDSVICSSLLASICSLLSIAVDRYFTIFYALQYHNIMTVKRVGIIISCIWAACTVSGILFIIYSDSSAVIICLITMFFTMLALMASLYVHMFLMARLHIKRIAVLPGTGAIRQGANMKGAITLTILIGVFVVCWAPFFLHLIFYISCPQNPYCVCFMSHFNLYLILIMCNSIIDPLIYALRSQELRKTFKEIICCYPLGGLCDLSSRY
In short: as §1

Human neurokinin (NK1) = target: T10, Human neurokinin (NK1) (Homo sapiens, UniProt P25103); experiment: Radioligand binding, human neurokinin NK1 membranes, filtration, [125I]-Substance P
T10 construct: purchased Perkin Elmer Biosignal
T10 sequence (P25103 whole entry): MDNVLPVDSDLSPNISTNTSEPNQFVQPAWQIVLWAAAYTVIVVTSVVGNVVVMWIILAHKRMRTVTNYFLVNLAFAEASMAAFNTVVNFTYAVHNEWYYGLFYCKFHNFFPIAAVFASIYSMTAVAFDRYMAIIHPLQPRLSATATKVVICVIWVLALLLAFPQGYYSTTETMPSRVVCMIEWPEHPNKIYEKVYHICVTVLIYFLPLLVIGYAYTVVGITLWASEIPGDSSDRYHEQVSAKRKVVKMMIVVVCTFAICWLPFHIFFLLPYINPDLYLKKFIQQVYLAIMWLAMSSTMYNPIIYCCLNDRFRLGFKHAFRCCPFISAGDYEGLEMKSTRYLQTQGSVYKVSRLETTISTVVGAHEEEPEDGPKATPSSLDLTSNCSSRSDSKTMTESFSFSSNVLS
In short: as §2

Human Melanocortin (MC3) = target: T11, Human Melanocortin (MC3) (Homo sapiens, UniProt P41968); experiment: Radioligand binding, human melanocortin MC3 membranes, FlashPlate, [125I]-NDP-αMSH
T11 construct: purchased Perkin Elmer Biosignal
T11 sequence (P41968 whole entry): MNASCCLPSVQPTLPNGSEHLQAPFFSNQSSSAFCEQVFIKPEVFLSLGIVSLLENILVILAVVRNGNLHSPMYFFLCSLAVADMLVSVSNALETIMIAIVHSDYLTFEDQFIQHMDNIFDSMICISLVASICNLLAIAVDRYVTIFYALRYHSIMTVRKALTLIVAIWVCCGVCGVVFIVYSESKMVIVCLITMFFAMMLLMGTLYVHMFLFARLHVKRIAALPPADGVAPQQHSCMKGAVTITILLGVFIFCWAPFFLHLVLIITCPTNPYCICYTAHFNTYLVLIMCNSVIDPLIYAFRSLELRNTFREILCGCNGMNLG
In short: as §1

T1 sequence (P41146 whole entry): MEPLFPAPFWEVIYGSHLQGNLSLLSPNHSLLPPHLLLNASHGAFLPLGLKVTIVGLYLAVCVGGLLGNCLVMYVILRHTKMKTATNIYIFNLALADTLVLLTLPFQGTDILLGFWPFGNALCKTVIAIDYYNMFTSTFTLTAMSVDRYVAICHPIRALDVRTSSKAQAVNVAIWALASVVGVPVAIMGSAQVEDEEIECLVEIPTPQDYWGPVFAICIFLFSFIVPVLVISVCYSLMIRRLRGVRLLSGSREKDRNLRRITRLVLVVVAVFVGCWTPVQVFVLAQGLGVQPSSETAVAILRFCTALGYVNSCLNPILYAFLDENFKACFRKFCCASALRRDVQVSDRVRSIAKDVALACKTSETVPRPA

CO[C@H]1[C@H](O)[C@@H](COCc2cccc(O)c2)OC(OCc2ccc(-c3ccccc3)cc2)[C@@H]1NC(=O)CCCNC(=N)N (some centres unmarked) [compound 149]
A10 radioligand binding, percentage inhibition (Human opioid (ORL1); [125I]-Nociceptin): − (“−” indicates less than 50% inhibition at 10 μM)
A9 radioligand binding, percentage inhibition ([1]; [125I]-PYY): − (“−” indicates less than 50% inhibition at 10 μM)
A7 radioligand binding, percentage inhibition (Human μ-opioid (MOP); [3H]-Naloxone): + (“+” indicates greater than 50% inhibition at 10 μM)
A1 radioligand binding, percentage inhibition (Human δ-opioid (DOP); [3H]-Bremazocine): − (“−” indicates less than 50% inhibition at 10 μM)
A2 radioligand binding, percentage inhibition (Human κ-Opioid (KOP); [3H]-Diprenorphine): − (“−” indicates less than 50% inhibition at 10 μM)
A11 radioligand binding, percentage inhibition (Mouse urotensin (mUR2); [125I]-Urotensin II): − (“−” indicates less than 50% inhibition at 10 μM)
A6 radioligand binding, percentage inhibition ([2]; [125I]-S36057): − (“−” indicates less than 50% inhibition at 10 μM)
A5 radioligand binding, percentage inhibition (Human melanocortin (MC5); [125I]-NDP-αMSH): − (“−” indicates less than 50% inhibition at 10 μM)
A4 radioligand binding, percentage inhibition (Human Melanocortin (MC4); [125I]-NDP-αMSH): − (“−” indicates less than 50% inhibition at 10 μM)
A8 radioligand binding, percentage inhibition (Human neurokinin (NK1); [125I]-Substance P): + (“+” indicates greater than 50% inhibition at 10 μM)
A3 radioligand binding, percentage inhibition (Human Melanocortin (MC3); [125I]-NDP-αMSH): − (“−” indicates less than 50% inhibition at 10 μM)

COCC1OC(OCCc2ccccc2)C(NC(=O)CCCNC(=N)N)C(OCc2ccc3ccccc3c2)C1O (centres unmarked) [compound 229]
A10: inhibition of radioligand binding (Human opioid (ORL1); [125I]-Nociceptin, FlashPlate): − (“−” indicates less than 50% inhibition at 10 μM)
A9: inhibition of radioligand binding ([1]; [125I]-PYY, FlashPlate): − (“−” indicates less than 50% inhibition at 10 μM)
A7: inhibition of radioligand binding (Human μ-opioid (MOP); [3H]-Naloxone, FlashPlate): − (“−” indicates less than 50% inhibition at 10 μM)
A1: inhibition of radioligand binding (Human δ-opioid (DOP); [3H]-Bremazocine, FlashPlate): − (“−” indicates less than 50% inhibition at 10 μM)
A2: inhibition of radioligand binding (Human κ-Opioid (KOP); [3H]-Diprenorphine, filtration): − (“−” indicates less than 50% inhibition at 10 μM)
A11: inhibition of radioligand binding (Mouse urotensin (mUR2); [125I]-Urotensin II, FlashPlate): − (“−” indicates less than 50% inhibition at 10 μM)
A6: inhibition of radioligand binding ([2]; [125I]-S36057, FlashPlate): + (“+” indicates greater than 50% inhibition at 10 μM)
A5: inhibition of radioligand binding (Human melanocortin (MC5); [125I]-NDP-αMSH, FlashPlate): + (“+” indicates greater than 50% inhibition at 10 μM)
A4: inhibition of radioligand binding (Human Melanocortin (MC4); [125I]-NDP-αMSH, FlashPlate): + (“+” indicates greater than 50% inhibition at 10 μM)
A8: inhibition of radioligand binding (Human neurokinin (NK1); [125I]-Substance P, filtration): + (“+” indicates greater than 50% inhibition at 10 μM)
A3: inhibition of radioligand binding (Human Melanocortin (MC3); [125I]-NDP-αMSH, FlashPlate): − (“−” indicates less than 50% inhibition at 10 μM)

NCCCC(=O)NC1C(OCc2ccccc2)OC(COCc2ccccc2)C(O)C1OCc1ccc(Cl)cc1 (centres unmarked) [compound 373]
A10: inhibition of radioligand binding, human opioid (ORL1) (Human opioid (ORL1); [125I]-Nociceptin): − (“−” indicates less than 50% inhibition at 10 μM)
A9: inhibition of radioligand binding, human neuropeptide Y (NPY-Y1) ([1]; [125I]-PYY): − (“−” indicates less than 50% inhibition at 10 μM)
A7: inhibition of radioligand binding, human μ-opioid (MOP) (Human μ-opioid (MOP); [3H]-Naloxone): − (“−” indicates less than 50% inhibition at 10 μM)
A1: inhibition of radioligand binding, human δ-opioid (DOP) (Human δ-opioid (DOP); [3H]-Bremazocine): − (“−” indicates less than 50% inhibition at 10 μM)
A2: inhibition of radioligand binding, human κ-opioid (KOP) (Human κ-Opioid (KOP); [3H]-Diprenorphine): − (“−” indicates less than 50% inhibition at 10 μM)
A11: inhibition of radioligand binding, mouse urotensin (mUR2) (Mouse urotensin (mUR2); [125I]-Urotensin II): − (“−” indicates less than 50% inhibition at 10 μM)
A6: inhibition of radioligand binding, human melanin-concentrating hormone (MCH1) ([2]; [125I]-S36057): − (“−” indicates less than 50% inhibition at 10 μM)
A5: inhibition of radioligand binding, human melanocortin (MC5) (Human melanocortin (MC5); [125I]-NDP-αMSH): + (“+” indicates greater than 50% inhibition at 10 μM)
A4: inhibition of radioligand binding, human melanocortin (MC4) (Human Melanocortin (MC4); [125I]-NDP-αMSH): + (“+” indicates greater than 50% inhibition at 10 μM)
A8: inhibition of radioligand binding, human neurokinin (NK1) (Human neurokinin (NK1); [125I]-Substance P): + (“+” indicates greater than 50% inhibition at 10 μM)
A3: inhibition of radioligand binding, human melanocortin (MC3) (Human Melanocortin (MC3); [125I]-NDP-αMSH): − (“−” indicates less than 50% inhibition at 10 μM)

COC[C@H]1OC(OCc2ccc(Cl)cc2)[C@H](NC(=O)CCNC(=N)N)[C@@H](OCc2ccc(Cl)cc2)[C@@H]1O (some centres unmarked) [compound 38]
A10 radioligand binding inhibition (Human opioid (ORL1); human ORL1 membranes): − (“−” indicates less than 50% inhibition at 10 μM)
A9 radioligand binding inhibition ([1]; human NPY-Y1 membranes): − (“−” indicates less than 50% inhibition at 10 μM)
A7 radioligand binding inhibition (Human μ-opioid (MOP); human μ-opioid (MOP) membranes): − (“−” indicates less than 50% inhibition at 10 μM)
A1 radioligand binding inhibition (Human δ-opioid (DOP); human δ-opioid (DOP) membranes): − (“−” indicates less than 50% inhibition at 10 μM)
A2 radioligand binding inhibition (Human κ-Opioid (KOP); human κ-opioid (KOP) membranes): − (“−” indicates less than 50% inhibition at 10 μM)
A11 radioligand binding inhibition (Mouse urotensin (mUR2); mouse urotensin mUR2 membranes): − (“−” indicates less than 50% inhibition at 10 μM)
A6 radioligand binding inhibition ([2]; human MCH1 membranes): + (“+” indicates greater than 50% inhibition at 10 μM)
A5 radioligand binding inhibition (Human melanocortin (MC5); human melanocortin MC5 membranes): + (“+” indicates greater than 50% inhibition at 10 μM)
A4 radioligand binding inhibition (Human Melanocortin (MC4); human melanocortin MC4 membranes): − (“−” indicates less than 50% inhibition at 10 μM)
A8 radioligand binding inhibition (Human neurokinin (NK1); human neurokinin NK1 membranes): + (“+” indicates greater than 50% inhibition at 10 μM)
A3 radioligand binding inhibition (Human Melanocortin (MC3); human melanocortin MC3 membranes): − (“−” indicates less than 50% inhibition at 10 μM)
